According to ChEMBL document CHEMBL1201862, “PubChem BioAssay data set” (2004):
Activity calls are given as the source filed them.

Key:
[1] = C. albicans growth with fluconazole, confirmation, fluorescence, retest (AID 2467); assay type: functional, cell-based
[2] = target: ATP-dependent molecular chaperone HSP82 (Candida albicans (strain WO-1) (Yeast), UniProt C4YTQ8); test: loss of DOC-induced GRE-beta-galactosidase reporter signal, dose response, Hsp90 inhibitor project, S. cerevisiae, luminescence (AID 2400); assay type: functional, cell-based;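 further: beta-galactosidase luminescence from glucocorticoid response element reporter as proxy for Hsp90 function; inhibitor potency where signal loss means Hsp90 inhibition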
[3] = target: T1, Serine/threonine-protein phosphatase (Candida dubliniensis (strain CD36 / CBS 7987 / NCPF 3949 / NRRLY-17841) (Yeast), UniProt B9W6M3); test: calcineurin pathway inhibitors in yeast reporter, dose response, S. cerevisiae, CDRE-lacZ, luminescence, secondary (AID 2388); assay type: functional, cell-based;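 further: yeast reporter cells carrying a calcineurin-responsive lacZ construct stimulated with calcium chloride; luminescent beta-galactosidase reporter signal in whole cells rather than isolated phosphatase activity; potency for inhibition where a drop in reporter signal means calcineurin blockade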
T1 sequence (B9W6M3 whole entry): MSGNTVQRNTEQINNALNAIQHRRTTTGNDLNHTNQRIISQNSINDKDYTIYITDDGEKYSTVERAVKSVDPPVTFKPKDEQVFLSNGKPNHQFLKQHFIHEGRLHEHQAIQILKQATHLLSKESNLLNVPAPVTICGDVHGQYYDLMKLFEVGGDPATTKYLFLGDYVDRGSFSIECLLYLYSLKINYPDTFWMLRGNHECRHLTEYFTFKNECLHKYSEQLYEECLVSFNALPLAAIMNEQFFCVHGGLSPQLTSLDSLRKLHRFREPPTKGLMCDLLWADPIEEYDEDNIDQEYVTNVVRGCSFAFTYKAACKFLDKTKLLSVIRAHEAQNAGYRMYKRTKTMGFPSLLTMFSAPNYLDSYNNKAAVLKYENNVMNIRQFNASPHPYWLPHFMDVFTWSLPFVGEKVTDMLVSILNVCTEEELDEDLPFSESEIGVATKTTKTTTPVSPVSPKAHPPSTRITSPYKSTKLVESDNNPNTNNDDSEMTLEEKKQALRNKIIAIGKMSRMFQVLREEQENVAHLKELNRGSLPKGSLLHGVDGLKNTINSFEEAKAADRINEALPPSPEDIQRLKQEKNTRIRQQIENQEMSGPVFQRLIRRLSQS

[4] = NIH-3T3 fibroblast cytotoxicity, dose response, cytotoxicity control, cell-based, fluorescence, Alamar Blue, secondary assay (AID 2327); assay type: functional;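 further: NIH-3T3 mouse fibroblasts cultured with fluconazole at 8 µg/mL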
Cytochrome P450 2C9 = Cytochrome P450 2C9 (Homo sapiens, UniProt P11712)
[5] = target: Eukaryotic translation initiation factor 4E (Mus musculus, UniProt P63073); test: eIF4E–eIF4G protein interaction inhibitors, dose response, biochemical, TR-FRET (AID 855); assay type: functional;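 further: potency for disrupting eIF4E binding to eIF4GI seen as loss of FRET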
Vero [6] = test: cells; assay type: functional; conditions: Chlorocebus sabaeus
Vero [7] = test: cells; assay type: functional, cell-based; conditions: Chlorocebus sabaeus
[8] = target: T2, Probable nicotinate-nucleotide adenylyltransferase (Staphylococcus aureus (strain N315), UniProt P65502); assay type: functional, Staphylococcus aureus subsp. aureus N315; conditions: read-out: IC50_Mean;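 on IC50 Mean: confirmatory dose-response retesting of NadD inhibitor hits first found in an ultra-high-throughput screen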
[9] = test system: Streptococcus sp. 'group A'; test: growth inhibition of control SK(-) GAS strain, dose response, counter-screen for streptokinase expression inhibitor project, luminescence, kanamycin, BacTiterGlo, confirmation (AID 1900); assay type: functional, organism-based
Streptococcus = test: Group A Streptococcus viability loss, dose response, counter-screen for streptokinase expression inhibitor project, luminescence, BacTiterGlo (AID 1915); assay type: functional, organism-based;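 further: potency for reduction of bacterial viability or growth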
[10] = target: T2, Probable nicotinate-nucleotide adenylyltransferase; assay type: functional, Staphylococcus aureus subsp. aureus N315
[11] = miR-122 activators in hepatoma reporter cells, dose response, cell-based, Huh7 psiCHECK-miR122, Renilla luciferase, cherry-picked (AID 651956); assay type: functional;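 further: huh7 hepatoma cells stably carrying a psiCHECK-2 miR-122 sensor plasmid; renilla luciferase signal reporting endogenous miR-122 activity after 48 h compound exposure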
Beta Lactamase = Beta Lactamase (Pseudomonas aeruginosa, UniProt Q932Y6); test: beta-lactamase reporter inhibitor potency, dose response, artefact control for NOD2-RIPK2 interaction inhibitor project, BLA reporter cells, FRET fluorescence (AID 651552); assay type: functional, cell-based
[12] = Fluorescence-based cell-based high throughput dose response assay for inhibitors of the interaction of nucleotide-binding oligomerization domain containing 2 (NOD2) and the receptor-interacting serine-threonine kinase 2 (RIPK2).; assay type: functional; conditions: Homo sapiens
[13] = Shn3 3'UTR reporter inhibitors, dose response, cell-based, Clone20 osteoblasts, firefly luciferase, cherry-picked (AID 624132); assay type: functional;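 further: firefly luciferase luminescence from reporter carrying the Shn3 3'UTR in osteoblasts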
[14] = control 3'UTR Renilla luciferase suppression, dose response, counter-screen for Shn3 inhibitor project, cell-based, Clone20-Shn3RL, cherry-picked (AID 624133); assay type: functional
[15] = inhibitors of PGC1a acetylation in cells, dose response, cell-based, cherry-picked samples (AID 720514); assay type: functional;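 further: potency may reflect raised or lowered acetylation signal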

T2 sequence (P65502 whole entry): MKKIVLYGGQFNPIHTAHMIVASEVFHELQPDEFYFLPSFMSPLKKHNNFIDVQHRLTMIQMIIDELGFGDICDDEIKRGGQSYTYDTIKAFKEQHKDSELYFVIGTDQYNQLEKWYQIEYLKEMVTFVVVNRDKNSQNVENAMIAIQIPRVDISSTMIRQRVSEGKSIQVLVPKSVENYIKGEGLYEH
Sequence of ATP-dependent molecular chaperone HSP82 (C4YTQ8 whole entry): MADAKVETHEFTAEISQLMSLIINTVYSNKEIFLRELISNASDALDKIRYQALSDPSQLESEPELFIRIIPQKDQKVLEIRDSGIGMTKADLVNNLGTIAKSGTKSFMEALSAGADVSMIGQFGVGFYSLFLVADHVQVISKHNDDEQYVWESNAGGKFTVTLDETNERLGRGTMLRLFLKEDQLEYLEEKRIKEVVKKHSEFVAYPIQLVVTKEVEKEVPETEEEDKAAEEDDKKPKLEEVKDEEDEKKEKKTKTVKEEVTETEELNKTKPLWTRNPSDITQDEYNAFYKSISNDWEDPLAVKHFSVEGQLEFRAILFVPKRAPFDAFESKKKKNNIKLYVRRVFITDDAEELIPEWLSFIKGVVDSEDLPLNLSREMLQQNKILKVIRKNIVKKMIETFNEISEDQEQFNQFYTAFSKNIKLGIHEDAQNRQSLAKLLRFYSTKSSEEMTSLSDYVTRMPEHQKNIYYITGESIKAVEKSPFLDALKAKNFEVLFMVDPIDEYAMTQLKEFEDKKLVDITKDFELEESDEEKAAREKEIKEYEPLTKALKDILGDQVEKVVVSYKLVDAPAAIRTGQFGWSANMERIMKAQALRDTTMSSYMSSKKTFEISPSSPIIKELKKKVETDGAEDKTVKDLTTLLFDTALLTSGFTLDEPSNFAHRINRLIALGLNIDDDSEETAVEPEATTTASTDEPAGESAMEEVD
Sequence of Beta Lactamase (Q932Y6 whole entry, the tested form may be a part): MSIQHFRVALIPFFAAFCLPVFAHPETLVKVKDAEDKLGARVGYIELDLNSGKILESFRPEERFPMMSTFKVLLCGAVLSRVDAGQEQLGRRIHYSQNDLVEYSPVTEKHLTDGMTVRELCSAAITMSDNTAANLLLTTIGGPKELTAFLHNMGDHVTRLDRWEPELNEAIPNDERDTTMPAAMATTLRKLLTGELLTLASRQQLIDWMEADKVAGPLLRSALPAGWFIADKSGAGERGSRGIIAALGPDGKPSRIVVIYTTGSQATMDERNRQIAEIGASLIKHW
Sequence of Eukaryotic translation initiation factor 4E (P63073 whole entry): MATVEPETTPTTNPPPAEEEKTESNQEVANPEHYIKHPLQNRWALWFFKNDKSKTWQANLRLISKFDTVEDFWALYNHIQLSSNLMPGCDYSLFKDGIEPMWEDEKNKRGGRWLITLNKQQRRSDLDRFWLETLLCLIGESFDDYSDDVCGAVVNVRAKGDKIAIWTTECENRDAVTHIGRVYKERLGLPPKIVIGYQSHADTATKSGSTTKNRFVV
Sequence of Cytochrome P450 2C9 (P11712 whole entry): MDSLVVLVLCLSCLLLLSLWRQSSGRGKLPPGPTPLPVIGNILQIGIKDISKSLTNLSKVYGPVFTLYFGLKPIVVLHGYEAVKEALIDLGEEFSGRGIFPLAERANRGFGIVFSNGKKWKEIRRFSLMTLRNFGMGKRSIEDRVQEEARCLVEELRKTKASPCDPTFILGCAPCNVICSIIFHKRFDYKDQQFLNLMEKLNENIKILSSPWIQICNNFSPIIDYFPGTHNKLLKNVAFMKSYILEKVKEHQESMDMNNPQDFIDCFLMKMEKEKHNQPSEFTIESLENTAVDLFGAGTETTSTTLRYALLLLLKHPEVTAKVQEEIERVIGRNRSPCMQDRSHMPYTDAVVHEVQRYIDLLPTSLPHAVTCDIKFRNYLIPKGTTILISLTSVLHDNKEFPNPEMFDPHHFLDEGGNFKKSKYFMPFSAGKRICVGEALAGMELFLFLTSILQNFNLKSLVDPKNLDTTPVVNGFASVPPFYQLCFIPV

In the case of `CN(C)S(=O)(=O)Oc1cccc(C(=O)Nc2cccc(Cl)c2)c1`, the EC50 [1] is reported as 2.39 µM (active), the EC50 [2] is reported as 24.7 µM (active) and the EC50 [3] is reported as > 180 µM (inactive). For the same compound, the EC50 [4] was > 150 µM (inactive).
For `COc1ccccc1/C=C/C(=O)c1c(O)nc(C)c2c1CCCC2`, the AC50 (Cytochrome P450 2C9) was “inconclusive”, the IC50 [5] was 50 µM (inactive) and the CC50 (Vero [6]) was > 25 µM (active). For the same compound, the IC50 (Vero [7]) was 20.3 µM (active).
In the case of `COc1ccc(C2c3ccc4ccccc4c3Oc3ncn(CCN4CCOCC4)c(=N)c32)cc1` (configuration not stated), the EC50 [1] is reported as 1.9 µM (active), the EC50 [2] is reported as > 160 µM (inactive) and the EC50 [3] is reported as > 180 µM (inactive). The EC50 [4] was > 160 µM (inactive).
For `N=C1SC(c2ccccc2)C(=O)N1c1ncc(Cc2ccccc2Cl)s1` (configuration not stated), the IC50 [8] was 16 µM (active), the EC50 [9] was 249 nM (active) and the EC50 (Streptococcus) was 3.47 µM (active). For the same compound, the IC50 [10] was 4.35 µM (active).
In the case of `COc1ccc(S(=O)(=O)Nc2cc(C)cc(C)n2)c2ccccc12`, the AC50 [11] is reported as 13.4 µM (active).
For `COc1ccc(CC2NCC(O)C2OC(C)=O)cc1` (configuration not stated), the IC50 (Beta Lactamase) was 49.7 µM (inactive), the IC50 [12] was 49.7 µM (inactive) and the AC50 [13] was < 260 nM (active). The AC50 [14] was 1.09 µM (active) and the AC50 [15] was 308 nM (active).
